Test results taken from patent US20250388575A1, “HETEROBIFUNCTIONAL COMPOUNDS AND METHODS OF TREATING DISEASE” (Halda Therapeutics OpCo, Inc., priority 2022, published 2025).
Like-named read-outs stand apart in the source and are kept apart here.

Tests used:
[1] = system: T-Rex 293 cell line SC3 cells having increased expression of androgen receptor protein; test: Cellular growth inhibition, T-Rex 293 SC3 cells with increased androgen receptor expression (doxycycline), CellTiter-Glo; assay type: cell-based
Description: (§1) The following types of cells were prepared for this experiment: (i) a T-Rex 293 cell line having increased expression of androgen receptor protein due to exposure to doxycycline and (ii) a T-Rex 293 cell line lacking increased expression of androgen receptor protein. Ability of the test compounds to inhibit proliferation of the foregoing cell types was evaluated according to the procedures set forth below.
(§2) The doxycycline-inducible androgen receptor protein expressing cell line was established using the following protocol: T-Rex 293 cells were purchased from Invitrogen (Cat #R71007) and transfected using Lipofectamine 2000 with the wild-type androgen receptor protein sequence cloned into the pcDNA4/TO vector. Transfected cells were selected using 400 μg/mL Zeocin (Invitrogen Cat #R25001). Following selection, single clones were raised and maintained in Dulbecco's Modified Eagle Medium (DMEM) supplemented with 10% w/w Tetracycline-free fetal bovine serum (FBS) and 250 μg/mL Zeocin. Clones were analyzed for expression of androgen receptor protein in the presence and absence of 10 ng/ml doxycycline (Sigma Cat #D9891), and a single doxycycline-inducible clone (hereinafter “SC3”) was selected for use in downstream assays.
(§3) The SC3 cells were seeded on poly-D-lysine coated, black clear-bottom 384-well plates at 2500/well, in 25 μL Phenol Red Free Dulbecco's Modified Eagle Medium (DMEM) supplemented with 10% w/w charcoal-dextran treated fetal bovine serum (FBS) and 1% w/w pen-strep, with or without 10 ng/mL doxycycline. Pen-Strep is a commercially available mixture of penicillin G and streptomycin, which is used in mammalian cell culture media to prevent bacterial contamination. Phenol Red Free Dulbecco's Modified Eagle Medium (DMEM) supplemented with 10% w/w charcoal-dextran treated fetal bovine serum (FBS) and 1% w/w pen-strep, with or without 10 ng/mL doxycycline is herein referred to as Treatment Medium. Following seeding of cells in the plates, the plates were spun at 300×g for 30 seconds, then equilibrated to room temperature for 30 minutes, and then deposited in a humidified tissue culture incubator maintained at 37° C. with 5% CO2.
(§4) At 24 hours after seeding of the cells, dilutions of test compound were prepared in DMSO and dissolved in Treatment Medium, to achieve a final DMSO concentration of 0.5% w/w, thereby providing the Test Compound Solution. A 25 μL aliquot of the Test Compound Solution was added to cells in the well plates. An equal volume of a solution containing DMSO and Treatment Medium was used as a negative control. Following treatment of cells with Test Compound Solution or said equal volume of a solution containing DMSO and Treatment Medium, the plates were spun at 300×g for 30 seconds, and then left in an incubator for 72 hours.
(§5) At the end of the treatment duration, cell viability was quantified with CellTiter-Glo 2.0 reagent (Promega Cat #G9243). For this purpose, plates were equilibrated to room temperature for 30 minutes, and then 25 μL of CellTiter-Glo 2.0 reagent was added to cells in the plate wells. Plates were then agitated on a shaker for two minutes at 500 rpm and subsequently incubated at room temperature for 10 minutes. Following incubation, the plates were spun at 3000×g for 30 seconds, then sealed with an optical adhesive cover, and luminescence readings were measured with an EnVision Plate Reader.
(§6) Data was normalized using zero luminescence for baseline. A four-parameter non-linear regression curve fit was applied to dose-response data in GraphPad Prism data analysis software to determine the half-maximal growth inhibitory concentration (GI50) for each test compound.

[2] = system: T-Rex 293 cell line SC3 cells lacking increased expression of androgen receptor protein; test: Cellular growth inhibition, T-Rex 293 SC3 cells lacking increased androgen receptor expression (no doxycycline), CellTiter-Glo; assay type: cell-based
Description: as §1, §2, §3, §4, §5, §6

VCaP cells = test: Cellular growth inhibition assay for VCaP cells, CellTiter-Glo; assay type: cell-based, human
Description: VCaP cells were purchased from American Type Cell Culture (ATCC Cat #CRL2876) and then seeded on poly-D-lysine coated, black clear-bottom 384-well plates at 5000/well in 25 μL Dulbecco's Modified Eagle Medium (DMEM) supplemented with 10% w/w Fetal bovine serum (FBS) and 1% w/w Pen-Strep. Pen-Strep is a commercially available mixture of penicillin G and streptomycin, which is used in mammalian cell culture media to prevent bacterial contamination. Dulbecco's Modified Eagle Medium (DMEM) supplemented with 10% w/w fetal bovine serum (FBS) and 1% w/w Pen-Strep is herein referred to as Treatment Medium. Following seeding of cells in the plates, the plates were spun at 300×g for 30 seconds, then equilibrated to room temperature for 30 minutes, and then deposited in a humidified tissue culture incubator maintained at 37° C. with 5% CO2.
as §4, §5, §6

[3] = T-Rex 293 SC3 cells with increased androgen receptor expression (exposed to 10 ng/mL doxycycline), 72 hours, CellTiter-Glo, read-out: GI50
[4] = T-Rex 293 SC3 cells lacking increased androgen receptor expression (not exposed to doxycycline), 72 hours, CellTiter-Glo, read-out: GI50
[5] = Homo sapiens, VCaP cells, 72 hours, CellTiter-Glo, read-out: GI50
[6] = VCaP cells, 72 hours, CellTiter-Glo, read-out: GI50

Row | SMILES | GI50 [1, 3] [nM] | GI50 [2, 4] [nM] | GI50 (VCaP cells; [5]) [nM] | GI50 (VCaP cells; [6]) [nM] | GI50 ([1]; 72 h) [nM] | GI50 ([2]; 72 h) [nM] | GI50 (VCaP cells; Homo sapiens, VCaP, 72 h) [nM]
1 | CCS(=O)(=O)Nc1ccc(Oc2cccc(OCCCC3CCN(c4ccc(C(=O)NC5CCC(Oc6ccc(C#N)c(Cl)c6)CC5)nn4)CC3)c2F)c(-c2cn(C)c(=O)c3[nH]ccc23)c1 (stereo not drawn) [I-18] | < 500 | < 500 | < 500 | – | – | – | –
2 | CCS(=O)(=O)c1ccc(Oc2cccc(CCCN3CCN(c4ccc(C(=O)N[C@H]5CC[C@H](Oc6ccc(C#N)c(Cl)c6)CC5)nn4)CC3)c2F)c(-c2cn(C)c(=O)c3[nH]ccc23)c1 [I-62] | < 500 | < 500 | – | < 500 | – | – | –
3 | Cn1cc(-c2cc(C(C)(C)O)ccc2Cc2ccc(CCC3CCN(c4ccc(C(=O)NC5CCC(Oc6ccc(C#N)c(Cl)c6)CC5)nn4)CC3)cc2)c2cc[nH]c2c1=O (stereo not drawn) [I-205, N-[4-(3-chloro-4-cyano-phenoxy)cyclohexyl]-6-[4-[2-[4-[[4-(1-hydroxy-1-methyl-ethyl)-2-(6-methyl-7-oxo-1H-pyrrolo[2,3-c]pyridin-4-yl)phenyl]methyl]phenyl]ethyl]-1-piperidyl]pyridazine-3-carboxamide] | < 500 | > 3000 | 500 to 1500 | – | – | – | –
4 | Cn1cc(-c2cc(C(C)(C)O)ccc2Oc2ccc(CCN3CC4(C3)CN(c3ccc(C(=O)N[C@H]5CC[C@H](Oc6ccc(C#N)c(Cl)c6)CC5)nn3)C4)cc2)c2cc[nH]c2c1=O [I-121] | < 500 | 500 to 1500 | – | < 500 | – | – | –
5 | Cn1cc(-c2cc(CS(C)(=O)=O)ccc2Oc2ccc(CCC3CCN(c4ccc(C(=O)NC5CCC(Oc6ccc(C#N)c(Cl)c6)CC5)nn4)CC3)cc2)c2cc[nH]c2c1=O (stereo not drawn) [I-237, N-[4-(3-chloro-4-cyano-phenoxy)cyclohexyl]-6-[4-[2-[4-[2-(6-methyl-7-oxo-1H-pyrrolo[2,3-c]pyridin-4-yl)-4-(methylsulfonylmethyl)phenoxy]phenyl]ethyl]-1-piperidyl]pyridazine-3-carboxamide] | < 500 | < 500 | < 500 | – | – | – | –
6 | CCS(=O)(=O)c1ccc(Oc2ccc(CCC3CCN(c4ccc(C(=O)N[C@H]5CC[C@H](Oc6ccc(C#N)c(Cl)c6)CC5)nn4)CC3)cn2)c(-c2cn(C)c(=O)c3[nH]ccc23)c1 [I-220] | < 500 | > 3000 | – | > 3000 | – | – | –
7 | Cn1cc(-c2cc(NS(=O)(=O)C(F)(F)F)ccc2Oc2cccc(OCCOC3CCN(c4ccc(C(=O)N[C@H]5CC[C@H](Oc6ccc(C#N)c(Cl)c6)CC5)nn4)CC3)c2F)c2cc[nH]c2c1=O [I-24] | 500 to 1500 | > 3000 | 1500 to 3000 | – | – | – | –
8 | CCS(=O)(=O)Nc1ccc(Oc2cccc(CCCOC3CCN(c4ccc(C(=O)N[C@H]5CC[C@H](Oc6ccc(C#N)c(Cl)c6)CC5)nn4)CC3)c2F)c(-c2cn(C)c(=O)c3[nH]ccc23)c1 [I-37, N-[4-(3-chloro-4-cyano-phenoxy)cyclohexyl]-6-[4-[3-[3-[4-(ethylsulfonylamino)-2-(6-methyl-7-oxo-1H-pyrrolo[2,3-c]pyridin-4-yl)phenoxy]-2-fluoro-phenyl]propoxy]-1-piperidyl]pyridazine-3-carboxamide] | – | – | – | – | < 500 | < 500 | < 500
9 | CCS(=O)(=O)c1ccc(Oc2cccc(OCCOC3CCN(c4ccc(C(=O)N[C@H]5CC[C@H](Oc6ccc(C#N)c(Cl)c6)CC5)nn4)CC3)c2F)c(-c2cn(C)c(=O)c3[nH]ccc23)c1 [I-23] | < 500 | < 500 | < 500 | – | – | – | –
10 | CCS(=O)(=O)c1ccc(Oc2cccc(CCCC3CCN(c4ncc(C(=O)N[C@H]5CC[C@H](Oc6ccc(C#N)c(Cl)c6)CC5)cn4)CC3)c2F)c(-c2cn(C)c(=O)c3[nH]ccc23)c1 [I-65] | < 500 | > 3000 | – | < 500 | – | – | –
11 | CCS(=O)(=O)Nc1ccc(Oc2cccc(CCC3CCN(c4ccc(C(=O)N[C@H]5CC[C@H](Oc6ccc(C#N)c(Cl)c6)CC5)nn4)CC3)c2)c(-c2cn(C)c(=O)c3[nH]ccc23)c1 [I-39] | < 500 | > 3000 | < 500 | – | – | – | –
12 | Cn1cc(-c2cc(S(=O)(=O)CCCN3CCN(c4ccc(C(=O)N[C@H]5CC[C@H](Oc6ccc(C#N)c(Cl)c6)CC5)nn4)CC3)ccc2Oc2ccc(F)cc2F)c2cc[nH]c2c1=O [I-93] | < 500 | > 3000 | – | < 500 | – | – | –
13 | CCS(=O)(=O)c1ccc(Oc2ccc(CCCC3CCN(c4ccc(C(=O)N[C@H]5CC[C@H](Oc6ccc(C#N)c(Cl)c6)CC5)nn4)CC3)c(F)c2)c(-c2cn(C)c(=O)c3[nH]ccc23)c1 [I-83] | < 500 | < 500 | < 500 | – | – | – | –
14 | CCS(=O)(=O)Nc1ccc(Oc2ccc(CCC3CCN(c4ccc(C(=O)NC5CCC(Oc6ccc(C#N)c(Cl)c6)CC5)nn4)CC3)c(F)c2)c(-c2cn(C)c(=O)c3ccccc23)c1 (stereo not drawn) [I-242, N-[4-(3-chloro-4-cyano-phenoxy)cyclohexyl]-6-[4-[2-[4-[4-(ethylsulfonylamino)-2-(2-methyl-1-oxo-4-isoquinolyl)phenoxy]-2-fluoro-phenyl]ethyl]-1-piperidyl]pyridazine-3-carboxamide] | < 500 | > 3000 | < 500 | – | – | – | –
15 | Cn1cc(-c2cc(NC(=O)CCCCCOC3CCN(c4ccc(C(=O)N[C@H]5CC[C@H](Oc6ccc(C#N)c(Cl)c6)CC5)nn4)CC3)ccc2Oc2ccc(F)cc2F)c2cc[nH]c2c1=O [I-215] | < 500 | 500 to 1500 | – | > 3000 | – | – | –
16 | CCS(=O)(=O)c1ccc(Oc2ccc(CCC3CCN(c4ccc(C(=O)NC5CCC(Oc6ccc(C#N)c(Cl)c6)CC5)nn4)CC3)cc2F)c(-c2cn(C)c(=O)c3[nH]ccc23)c1 (stereo not drawn) [I-45, N-[4-(3-chloro-4-cyano-phenoxy)cyclohexyl]-6-[4-[2-[4-[4-ethylsulfonyl-2-(6-methyl-7-oxo-1H-pyrrolo[2,3-c]pyridin-4-yl)phenoxy]-3-fluoro-phenyl]ethyl]-1-piperidyl]pyridazine-3-carboxamide] | < 500 | < 500 | < 500 | – | – | – | –
17 | CCS(=O)(=O)Nc1ccc(Oc2cccc(CCCN3CCN(c4ccc(C(=O)N[C@H]5CC[C@H](Oc6ccc(C#N)c(Cl)c6)CC5)nn4)CC3)c2F)c(-c2cn(C)c(=O)c3[nH]ccc23)c1 [I-13] | < 500 | < 500 | < 500 | – | – | – | –
18 | Cn1cc(-c2cc(C(C)(C)O)ccc2Oc2ccc(CCCCC3CCN(c4ccc(C(=O)N[C@H]5CC[C@H](Oc6ccc(C#N)c(Cl)c6)CC5)nn4)CC3)cc2)c2cc[nH]c2c1=O [I-125] | – | – | – | < 500 | – | – | –
19 | CCS(=O)(=O)Nc1ccc(Oc2cccc(OCCOCCOCCOCCOCCOCCOCCOC3CCN(c4ccc(C(=O)N[C@H]5CC[C@H](Oc6ccc(C#N)c(Cl)c6)CC5)nn4)CC3)c2)c(-c2cn(C)c(=O)c3[nH]ccc23)c1 [I-4, N-[4-(3-chloro-4-cyano-phenoxy)cyclohexyl]-6-[4-[2-[2-[2-[2-[2-[2-[2-[3-[4-(ethylsulfonylamino)-2-(6-methyl-7-oxo-1H-pyrrolo[2,3-c]pyridin-4-yl)phenoxy]phenoxy]ethoxy]ethoxy]ethoxy]ethoxy]ethoxy]ethoxy]ethoxy]-1-piperidyl]pyridazine-3-carboxamide] | < 500 | 1500 to 3000 | – | – | – | – | –
